In brackets after ≈: the same amount, converted by molar mass. Where two headings read alike, the source gives them in different places.
What was measured:
Mtb gyrase = conditions: Figure 1E, GlaxoSmithKline MGIs; cited from earlier work
physchem [1] = type: physicochemical; conditions: pH 7.4, aqueous buffer, kinetic from dmso stock
Method: 10μL of a 10 mM solution in DMSO of the compound are diluted in 490 μL of PBS pH 7.4 in Matrix tube (in triplicate) or organic solvent (ACN, MeOH) in Matrix tube (in triplicate). The tubes are gently shaken 24h at room temperature. Then the tubes are centrifuged for 5 minutes at 4000 rpm and filtered over 0.45 μm filters (Millex-LH Millipore). 20 μL of each tube are diluted in 180 μL of MeOH. Analysis is performed thanks to a UPLC-MS/MS system (Waters) under SIM detection using the parameters optimized for each compound. HPLC analysis was performed using an Aquity C18 (50x2.1 mm, 1.8 μm); the gradient and the mobile phase (flow rate 600 μL/min^-1) used are determined in order to detect the compound of interest with satisfying retention time and peak shape. Acquisition and analysis of data were performed with Masslynx software. The solubility is determined by the ratio of mass signal area PBS/ organic solvent.

physchem [2] = type: physicochemical; conditions: pH 7.4
Method: 40 μL of a 10 mM solution in DMSO of the compound were diluted in 1.960 mL of a 1/1 octanol/PBS at pH 7.4 solution. The mixture was gently shaken 2h at room temperature. 20 μL of each solution was diluted in 480 μμL of MeOH and analyzed by LC-MS. Each compound is tested in triplicate. Analysis is performed thanks to a UPLC-MS/MS triple-quadrupole system (Waters) under SIM or MRM detection using the parameters optimized for each compound. HPLC analysis was performed using an Aquity C18 (50x2.1 mm, 1.8 μm); the gradient and the mobile phase (flow rate 600μL/min^-1) used are determined in order to detect the compound of interest with satisfying retention time and peak shape. Acquisition and analysis of data were performed with MS Workstation™ software (version 6.3.0 or higher). LogD was determined as the logarithm of the ratio of concentrations of product in octanol and PBS, determined by mass signals.

E. coli = experiment: MIC, agar dilution method, ESKAPE strains; type: cell-based, Escherichia coli
S. aureus = experiment: MIC, agar dilution method, ESKAPE strains; type: cell-based; conditions: Staphylococcus aureus
E. faecium = experiment: MIC, agar dilution method, ESKAPE strains; type: cell-based; conditions: Enterococcus faecium; read-out: MIC E. faecium MDR(5)
A. baumannii = experiment: MIC, agar dilution method, ESKAPE strains; type: cell-based; conditions: Acinetobacter baumannii
[3] = target: wild-type E. coli DNA gyrase (Escherichia coli, UniProt P0AES4+P0AES6); experiment: biochemical; conditions: read-out: IC50 E. coli WT
wild-type Mtb gyrase = target: T1, wild-type Mtb gyrase (Mycobacterium tuberculosis, UniProt P9WG45+P9WG47); type: biochemical
T1 construct: His tag (TEV-cleavable) (N, cleaved yes); made in house; host or cells: E. coli Bli5 (DE3)

[4] = system: Mycobacterium tuberculosis H37Rv WT; experiment: microbe, parasite or virus in culture; type: cell-based
[5] = system: Corynebacterium glutamicum (Cglu) WT; experiment: MIC on Cglu WT; type: cell-based
K. pneumoniae = experiment: MIC, agar dilution method, ESKAPE strains; type: cell-based; conditions: Klebsiella pneumoniae
Mtb GyrBA fusion protein [6] = target: T2, Mtb GyrBA fusion protein (Mycobacterium tuberculosis, UniProt P9WG45+P9WG47); experiment: DNA cleavage assay on pBR322; type: biochemical; conditions: pBR322 5 nM, Mtb gyrase 200 nM, 5 μM inhibitor
T2 construct: His6 (TEV-cleavable) (N, cleaved yes); made in house; host or cells: E. coli Bli5 (DE3)

Mtb GyrBA fusion protein [7] = target: T2, Mtb GyrBA fusion protein; experiment: DNA cleavage competition with ciprofloxacin; type: biochemical
Mtb GyrBA fusion protein [8] = target: T2, Mtb GyrBA fusion protein; experiment: Cleavage complex persistence (DNA cleavage-religation assay); type: biochemical
[9] = system: wild-type C. glutamicum ATCC1332 strain; experiment: Bacterial cell morphology (cell length) by microscopy; type: cell-based, Corynebacterium glutamicum; conditions: 10x MIC, 24h, vs DMSO control
Mtb = conditions: Figure 1F; cited from earlier work
[10] = Escherichia coli, E. coli 10385 NDM-1, read-out: MIC E. coli MDR(2)
[11] = Escherichia coli, read-out: MIC E. coli WT(1)
[12] = read-out: MIC A. baumannii MDR(6)
[13] = Escherichia coli, 2 h, read-out: MIC E. coli WT
[14] = Escherichia coli, ATCC25922, read-out: MIC
[15] = Escherichia coli, E. coli 9003, BLSE, read-out: MIC
[16] = A. baumannii 09010, VEB-1, read-out: MIC

COc1cnc2ccc(=O)n(CCN3CCC(Nc4ccc(Cl)c(Cl)c4)CC3)c2c1 [GSK000]
IC50 (Mtb gyrase): 5400 nM

COc1ccc2nccc(-n3cc(CCNC(=O)c4ccc5c(c4)NC(=O)CS5)nn3)c2c1 [BDM71367 (11a)]
solubility at 24 h (physchem [1]): < 0.17 µg/mL | logD (physchem [2]): > 2.65 | MIC (E. coli; [10]): 0.25 µg/mL (≈ 0.543 µM) | MIC (E. coli; [11]): 8 µg/mL (≈ 17.4 µM) | MIC (S. aureus; read-out: MIC S. aureus MDR(4)): 4 µg/mL (≈ 8.69 µM) | MIC (S. aureus; read-out: MIC S. aureus WT(3)): 4 µg/mL (≈ 8.69 µM) | MIC (E. faecium): 8 µg/mL (≈ 17.4 µM) | MIC (A. baumannii; [12]): 4 µg/mL (≈ 8.69 µM)

COc1ccc2nccc(-n3cc(CCNCc4ccc5c(c4)NC(=O)CS5)nn3)c2c1 [BDM71368 (9a)]
solubility at 24 h (physchem [1]): 84.7 µg/mL (≈ 190 µM) | logD (physchem [2]): 1.81 | MIC (E. coli; [13]): 1 µg/mL (≈ 2.24 µM) | MIC (E. coli; [10]): ≤ 0.06 µg/mL | MIC (E. coli; [11]): 1 µg/mL (≈ 2.24 µM) | MIC (S. aureus; read-out: MIC S. aureus MDR(4)): 1 µg/mL (≈ 2.24 µM) | MIC (S. aureus; read-out: MIC S. aureus WT(3)): 1 µg/mL (≈ 2.24 µM) | MIC (E. faecium): 0.5 µg/mL (≈ 1.12 µM) | MIC (A. baumannii; [12]): 1 µg/mL (≈ 2.24 µM) | IC50 [3]: 1170 nM | IC50 lower than ciprofloxacin (wild-type Mtb gyrase): 10 fold | IC50 lower than gepotidacin (wild-type Mtb gyrase): 6 fold | MIC [4]: 1 µg/mL (≈ 2.24 µM) | MIC [5]: 0.5 µg/mL (≈ 1.12 µM)

COc1ccc2nccc(-n3cc(CCNCc4ccc5c(c4)NC(=O)CS5)nn3)c2n1 [BDM71403 (10a)]
solubility at 24 h (physchem [1]): 44 µg/mL (≈ 98.3 µM) | logD (physchem [2]): 1.92 | MIC (E. coli): 0.5 µg/mL (≈ 1.12 µM) | MIC (E. coli; [13]): 1 µg/mL (≈ 2.23 µM) | MIC (E. coli; [14]): 1 µg/mL (≈ 2.23 µM) | MIC (E. coli; [15]): 1 µg/mL (≈ 2.23 µM) | MIC (E. coli; Escherichia coli, E. coli 10269, NDM-1, read-out: MIC): 1 µg/mL (≈ 2.23 µM) | MIC (E. coli; Escherichia coli, E. coli 10273, KPC-2, read-out: MIC): 1 µg/mL (≈ 2.23 µM) | MIC (E. coli; Escherichia coli, E. coli 10385, NDM-1, read-out: MIC): < 0.06 µg/mL | MIC (E. coli; [10]): ≤ 0.06 µg/mL | MIC (E. coli; Escherichia coli, E. coli 10386, NDM-1, read-out: MIC): 1 µg/mL (≈ 2.23 µM) | MIC (E. coli; Escherichia coli, read-out: MIC): 1 µg/mL (≈ 2.23 µM) | MIC (E. coli; [11]): 1 µg/mL (≈ 2.23 µM) | MIC (S. aureus; read-out: MIC S. aureus MDR(4)): 0.25 µg/mL (≈ 0.559 µM) | MIC (S. aureus; read-out: MIC S. aureus WT(3)): 0.25 µg/mL (≈ 0.559 µM) | MIC (E. faecium): ≤ 0.06 µg/mL | MIC (A. baumannii; [16]): 1 µg/mL (≈ 2.23 µM) | MIC (A. baumannii; A. baumannii 10275, VIM-4, read-out: MIC): < 0.06 µg/mL | MIC (K. pneumoniae; K. pneumoniae 10270, VIM): 4 µg/mL (≈ 8.94 µM) | MIC (K. pneumoniae; K. pneumoniae 10272, 0XA-48): 2 µg/mL (≈ 4.47 µM) | MIC (K. pneumoniae; K. pneumoniae 10277, KPC-2): 2 µg/mL (≈ 4.47 µM) | IC50 [3]: 80 nM | IC50 lower than ciprofloxacin (wild-type Mtb gyrase): 12 fold | IC50 lower than gepotidacin (wild-type Mtb gyrase): 7 fold | MIC [4]: 0.5 µg/mL (≈ 1.12 µM) | MIC [5]: 0.12 µg/mL (≈ 0.268 µM) | minor population of linearized DNA (Mtb GyrBA fusion protein [6]): 10–20% | concentration at which nicked DNA is diminished by 50% (Mtb GyrBA fusion protein [7]): 10 µM | lower concentration for drop of nicked DNA to 50% in comparison with gepotidacin (Mtb GyrBA fusion protein [7]): 2.5 fold | difference in complex half-life versus gepotidacin (Mtb GyrBA fusion protein [8]): 10 fold | Cohen's d, cell length compared to control [9]: 1.87 | effect size class, cell length compared to control [9]: ∗∗∗ (very large (∗∗∗), 1.20 < d < 2.0)

COc1ccc2nccc(-n3cc(CCNCc4ccc5c(c4)OCCO5)nn3)c2c1 [BDM71369 (9b)]
solubility at 24 h (physchem [1]): > 83.5 µg/mL | logD (physchem [2]): 1.21 | MIC (E. coli; [10]): 1 µg/mL (≈ 2.4 µM) | MIC (E. coli; [11]): 32 µg/mL (≈ 76.7 µM) | MIC (S. aureus; read-out: MIC S. aureus MDR(4)): 1 µg/mL (≈ 2.4 µM) | MIC (S. aureus; read-out: MIC S. aureus WT(3)): 1 µg/mL (≈ 2.4 µM) | MIC (E. faecium): 0.25 µg/mL (≈ 0.599 µM) | MIC (A. baumannii; [12]): 32 µg/mL (≈ 76.7 µM) | IC50 [3]: 130 nM

COc1ccc2nccc(-n3cc(CCNCc4ccc5c(c4)NC(=O)CO5)nn3)c2c1 [BDM71346 (9c)]
solubility at 24 h (physchem [1]): 76.9 µg/mL (≈ 179 µM) | logD (physchem [2]): 1.32 | MIC (E. coli; [10]): 0.5 µg/mL (≈ 1.16 µM) | MIC (E. coli; [11]): 8 µg/mL (≈ 18.6 µM) | MIC (S. aureus; read-out: MIC S. aureus MDR(4)): 32 µg/mL (≈ 74.3 µM) | MIC (S. aureus; read-out: MIC S. aureus WT(3)): 16 µg/mL (≈ 37.2 µM) | MIC (E. faecium): 1 µg/mL (≈ 2.32 µM) | MIC (A. baumannii; [12]): 4 µg/mL (≈ 9.29 µM) | IC50 [3]: 780 nM

O=C(O)c1cn(C2CC2)c2cc(N3CCNCC3)c(F)cc2c1=O [Ciprofloxacin, ciprofloxacin, reference compound]
MIC (E. coli; [13]): ≤ 0.06 µg/mL | MIC (E. coli; [14]): < 0.06 µg/mL | MIC (E. coli; [15]): 16 µg/mL (≈ 48.3 µM) | MIC (E. coli; [11]): ≤ 0.06 µg/mL | MIC (S. aureus; read-out: MIC S. aureus MDR(4)): ≥ 128 µg/mL | MIC (E. faecium): ≥ 128 µg/mL | MIC (A. baumannii; [16]): > 32 µg/mL | MIC [4]: 1 µg/mL (≈ 3.02 µM) | MIC [5]: 0.25 µg/mL (≈ 0.754 µM) | Cohen's d, cell length compared to control [9]: 2.08

COc1ccc2nccc(-n3cc(CCNC(=O)c4ccc5c(c4)OCCO5)nn3)c2c1 [BDM71373 (11b)]
solubility at 24 h (physchem [1]): 10.2 µg/mL (≈ 23.6 µM) | logD (physchem [2]): 2.35 | MIC (E. coli; [10]): 32 µg/mL (≈ 74.2 µM) | MIC (E. coli; [11]): ≥ 32 µg/mL | MIC (S. aureus; read-out: MIC S. aureus MDR(4)): ≥ 32 µg/mL | MIC (S. aureus; read-out: MIC S. aureus WT(3)): ≥ 32 µg/mL | MIC (E. faecium): ≥ 32 µg/mL | MIC (A. baumannii; [12]): 32 µg/mL (≈ 74.2 µM)

O=c1ccc2ncc(=O)n3c2n1C[C@H]3CN1CCC(NCc2cc3c(cn2)OCCC3)CC1 [Gepotidacin, gepotidacin, reference compound]
MIC [4]: 4 µg/mL (≈ 8.92 µM) | MIC [5]: 0.2 µg/mL (≈ 0.446 µM) | minor population of linearized DNA (Mtb GyrBA fusion protein [6]): 10–20% | Cohen's d, cell length compared to control [9]: 2.36 | effect size class, cell length compared to control [9]: ∗∗∗∗ (huge (∗∗∗∗), d > 2.0)

COc1ccc2nccc(-n3cc(CCNCc4ccc5c(c4)OCCO5)nn3)c2n1 [BDM71404 (10b)]
solubility at 24 h (physchem [1]): 66.9 µg/mL (≈ 160 µM) | logD (physchem [2]): 1.53 | MIC (E. coli; [10]): 0.25 µg/mL (≈ 0.597 µM) | MIC (E. coli; [11]): 8 µg/mL (≈ 19.1 µM) | MIC (S. aureus; read-out: MIC S. aureus MDR(4)): 0.25 µg/mL (≈ 0.597 µM) | MIC (S. aureus; read-out: MIC S. aureus WT(3)): 0.25 µg/mL (≈ 0.597 µM) | MIC (E. faecium): ≤ 0.06 µg/mL | IC50 [3]: 380 nM

COc1cnc2ccc(=O)n(CCN3CCC(Nc4cnc(CO)c(Cl)c4)CC3)c2c1 [EC/11716]
MIC (Mtb): 0.17 µg/mL (≈ 0.383 µM)

Source: PMC11489056, “Molecular mechanism of a triazole-containing inhibitor of Mycobacterium tuberculosis DNA gyrase” (iScience, 2024)
